Experimental data reported in patent publication US11926619B2, “Certain pladienolide compounds and methods of use” (EISAI R&D MANAGEMENT CO., LTD., priority 2018, dated 2024).

Columns and labels:
[1] = in vivo; cited from earlier work
[2] = test system: WiDr-R cells (colon cancer cells; chemically-induced SF3B1 R1074H mutant); details: R1074H mutation; cited from earlier work
SF3b complexes = biological target: T1, SF3b complexes (Homo sapiens, UniProt O75533+Q7RTV0); assay: Scintillation proximity assay (SPA) with [3H]-labelled pladienolide probe; assay type: binding; details: wt SF3B1, read-out: SPA (wt SF3B1 cells) IC50
T1 construct: endogenous in cells
Summary of the method: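 SF3b complexes immunoprecipitated from nuclear extracts with anti-SF3B1 antibody on anti-mouse PVT SPA beads. Beads pre-incubated 30 min with varying PB or PB-OH, then 2.5 nM [3H]-PB added for 30 min; scintillation signal read and fit by non-linear regression.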

[3] = test system: WiDr cells (colon cancer cells; wildtype SF3B1); assay: Cell viability assay (CellTiter-Glo, 72 hr), WiDr cells; assay type: cell-based; details: Homo sapiens; WiDr cells (wildtype SF3B1); read-out: WiDr GI50
Summary of the method: (§1)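 Cells at 2000/well were exposed to 9 compound concentrations (0.1% DMSO) in duplicate or triplicate for 72 hr at 37 °C. ATP was read by CellTiter-Glo against a time-zero plate and DMSO control growth. Percent growth/viability was plotted against concentration to give Emax; negative values indicate lethality.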

[4] = test system: Panc 05.04 cells (pancreatic cancer cells; Q699H and K700E mutations in SF3B1); assay: Cell viability assay (CellTiter-Glo, 72 hr), Panc 05.04 cells; assay type: cell-based; details: Panc 05.04 cells (mutant SF3B1); for Emax: maximum achievable response in tested dose range, negative value = cellular lethality, read-out: Panc 05.04 (mt SF3B1 cells) Emax (%); for GI50: read-out: Panc 05.04 (mt SF3B1 cells), GI50
Summary of the method: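 Panc 05.04 cells treated 72 hr at 37 °C with 9 compound concentrations (0.1% DMSO), duplicate or triplicate. ATP read by CellTiter-Glo; growth inhibition/viability calculated against a time-zero plate and DMSO control growth. Emax is the maximal response over the tested range, negative values meaning lethality.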

[5] = test system: WiDr-R cells (colon cancer cells; chemically-induced SF3B1 R1074H mutant); assay: Cell viability assay (CellTiter-Glo, 72 hr), resistant WiDr-R cells (counter-screen); assay type: cell-based; details: WiDr-R cells (SF3B1 R1074H mutation, resistant); read-out: WiDr-R GI50
Summary of the method: as §1

[6] = from C=CC[C@@](C)(CCCCC(=O)O[C@H](/C(C)=C/I)[C@@H](C)C=C)O[Si](CC)(CC)CC; rcm bond; Hoveyda-Grubbs catalyst; toluene; 4.0 mM; 50.0 °C; 2.0 h

tremelimumab
plasma half-life [1]: approximately 22 days

CCC(O)C(C)C1OC1CC(C)(O)/C=C/C=C(\C)C1OC(=O)CC(O)CCC(C)(O)C(OC(=O)N2CCN(C3CCCCCC3)CC2)/C=C/C1C (stereo not shown) [Compound E7107, (8E,12E,14E)-7-((4-Cycoheptylpiperazin-1-yl)carbonyl)oxy-3,6,16,21-tetrahydroxy-6,10,12,16,20-pentamethyl-18,19-epoxytricosa-8,12,14-trien-11-olide]
resistance of WiDr-R cells in terms of growth inhibition [2]: resistant

C/C(=C\C=C\C(C)c1cccnn1)[C@H]1OC(=O)C[C@H](O)CC[C@@](C)(O)[C@@H](OC(=O)N2CCN(C)CC2)/C=C/[C@@H]1C (stereo partly shown)
IC50 (SF3b complexes): 9.2 nM
GI50 [3]: 18.7 nM
Emax [4]: -90.9%
GI50 [4]: 59.2 nM
GI50 [5]: > 1000 nM

CC(=O)O[C@H]1/C=C/[C@H](C)[C@@H](/C(C)=C/C=C/[C@H](C)c2ccccn2)OC(=O)C[C@H](O)CC[C@@]1(C)O
IC50 (SF3b complexes): 235 nM
GI50 [3]: 205 nM
Emax [4]: 1.96%
GI50 [4]: 546 nM
GI50 [5]: > 10000 nM

CCCNC(=O)OC[C@H](C)/C=C/C=C(\C)[C@H]1OC(=O)C[C@H](O)CC[C@@](C)(O)[C@@H](OC(C)=O)/C=C/[C@@H]1C
IC50 (SF3b complexes): 473 nM
GI50 [3]: 1940 nM
Emax [4]: 40.5%
GI50 [4]: 4590 nM
GI50 [5]: > 10000 nM

C/C(=C\C=C\[C@@H](C)c1ccccn1)[C@H]1OC(=O)C[C@H](O)CC[C@H](C)[C@@H](OC(=O)N2CCN(C3CCCCCC3)CC2)/C=C/[C@@H]1C
IC50 (SF3b complexes): 10.6 nM
GI50 [3]: 33.2 nM
Emax [4]: -96.3%
GI50 [4]: 44 nM
GI50 [5]: 2430 nM

C/C(=C\C=C\[C@@H](C)c1ccccn1)[C@H]1OC(=O)C[C@H](O)CC[C@@](C)(O)[C@@H](OC(=O)N2CCN(C3CCOCC3)CC2)/C=C/[C@@H]1C
IC50 (SF3b complexes): 8.56 nM
GI50 [3]: 53.1 nM
Emax [4]: -87.7%
GI50 [4]: 37.2 nM
GI50 [5]: > 1000 nM

CC(=O)O[C@H]1/C=C/[C@H](C)[C@@H](/C(C)=C/C=C/[C@@H](C)COC(=O)N(C)C)OC(=O)C[C@H](O)CC[C@@]1(C)O
IC50 (SF3b complexes): 18 nM
GI50 [3]: 46.7 nM
Emax [4]: -91.2%
GI50 [4]: 74.4 nM
GI50 [5]: > 10000 nM

C/C(=C\C=C\[C@@H](C)c1ccccn1)[C@H]1OC(=O)C[C@H](O)CC[C@@](C)(O)[C@@H](OC(=O)N2CCN(C(C)C)CC2)/C=C/[C@@H]1C
IC50 (SF3b complexes): 6.37 nM
GI50 [3]: 31.8 nM
Emax [4]: -90.1%
GI50 [4]: 26.6 nM
GI50 [5]: > 1000 nM

CCN(CC)C(=O)OC[C@H](C)/C=C/C=C(\C)[C@H]1OC(=O)C[C@H](O)CC[C@@](C)(O)[C@@H](OC(C)=O)/C=C/[C@@H]1C
IC50 (SF3b complexes): 2.4 nM
GI50 [3]: 21.2 nM
Emax [4]: -92.2%
GI50 [4]: 25 nM
GI50 [5]: > 10000 nM

CC[C@H](O)[C@@H](C)[C@H]1O[C@@H]1C[C@@](C)(O)/C=C/C=C(\C)[C@H]1OC(=O)C[C@H](O)CC[C@H](C)[C@@H](OC(C)=O)/C=C/[C@@H]1C
IC50 (SF3b complexes): 5.28 nM
GI50 [3]: 2.14 nM
Emax [4]: -65.3%
GI50 [4]: 4.88 nM
GI50 [5]: 822 nM

C/C(=C\C=C\[C@@H](C)COC(=O)N1CC[C@@H](O)C1)[C@H]1OC(=O)C[C@H](O)CC[C@H](C)[C@@H](OC(=O)N2CCN(C)CC2)/C=C/[C@@H]1C
IC50 (SF3b complexes): 5.43 nM
GI50 [3]: 4.86 nM
Emax [4]: -83.3%
GI50 [4]: 3.37 nM
GI50 [5]: > 1000 nM

C/C(=C\C=C\[C@@H](C)c1ccccn1)[C@H]1OC(=O)C[C@H](O)CC[C@@](C)(O)[C@@H](OC(=O)N2C[C@H]3C[C@H]2CN3C)/C=C/[C@@H]1C
IC50 (SF3b complexes): 12.3 nM
GI50 [3]: 41.5 nM
Emax [4]: -29.4%
GI50 [4]: 56.4 nM
GI50 [5]: > 1000 nM

CC[Si](CC)(CC)O[C@@]1(C)CC=C[C@H](C)[C@@H](/C(C)=C/I)OC(=O)CCCC1
ring closure, yield of all isomers [6]: 53%

C/C(=C\C=C\[C@@H](C)COC(=O)N1CC[C@@H](O)C1)[C@H]1NC(=O)CCCCC[C@@H](OC(=O)N2CCN(C)CC2)/C=C/[C@@H]1C
IC50 (SF3b complexes): 267 nM
GI50 [3]: 376 nM
Emax [4]: 19.1%
GI50 [4]: 1180 nM
GI50 [5]: > 10000 nM

C/C(=C\C=C\[C@@H](C)COC(=O)N1CCC[C@H]1CO)[C@H]1OC(=O)C[C@H](O)CC[C@@](C)(O)[C@@H](OC(=O)N2CCN(C3CCCCCC3)CC2)/C=C/[C@@H]1C
IC50 (SF3b complexes): 7.03 nM
GI50 [3]: 2.73 nM
Emax [4]: -70.4%
GI50 [4]: 2.39 nM
GI50 [5]: 40.1 nM

C/C(=C\C=C\[C@@H](C)COC(=O)N1CC[C@@H](O)C1)[C@H]1OC(=O)CCCCC[C@@H](OC(=O)N2CCN(C3CCCCCC3)CC2)/C=C/[C@@H]1C
IC50 (SF3b complexes): 40.2 nM
GI50 [3]: 45.5 nM
Emax [4]: -81.6%
GI50 [4]: 35.2 nM
GI50 [5]: > 1000 nM

C/C(=C\C=C\C(C)c1ccncc1)[C@H]1OC(=O)C[C@H](O)CC[C@@](C)(O)[C@@H](OC(=O)N2CCN(C3CCCCCC3)CC2)/C=C/[C@@H]1C (stereo partly shown)
IC50 (SF3b complexes): 2.74 nM
GI50 [3]: 14 nM
Emax [4]: -95.1%
GI50 [4]: 6.63 nM
GI50 [5]: > 1000 nM

C/C(=C\C=C\[C@H](C)c1cccnc1)[C@H]1OC(=O)C[C@H](O)CC[C@@](C)(O)[C@@H](OC(=O)N2CCN(C3CCCCCC3)CC2)/C=C/[C@@H]1C
IC50 (SF3b complexes): 2.56 nM
GI50 [3]: 29.4 nM
Emax [4]: -94.2%
GI50 [4]: 20.4 nM
GI50 [5]: > 1000 nM

C/C(=C\C=C\[C@@H](C)COC(=O)N1CCCC1)[C@H]1OC(=O)CCCCC[C@@H](OC(=O)N2CCN(C)CC2)/C=C/[C@@H]1C
IC50 (SF3b complexes): 3.71 nM
GI50 [3]: 7.84 nM
Emax [4]: -90.5%
GI50 [4]: 6.74 nM
GI50 [5]: 2440 nM

C/C(=C\C=C\[C@@H](C)CNC(=O)N1CCCC1)[C@H]1OC(=O)C[C@H](O)CC[C@@](C)(O)[C@@H](OC(=O)N2CCN(C)CC2)/C=C/[C@@H]1C
IC50 (SF3b complexes): 7.62 nM
GI50 [3]: 76.6 nM
Emax [4]: -90.4%
GI50 [4]: 54.1 nM
GI50 [5]: > 1000 nM

C/C(=C\C=C\[C@@H](C)COC(=O)N1CCCC1)[C@H]1OC(=O)C[C@H](O)CC[C@](C)(O)[C@@H](OC(=O)N2CCN(C)CC2)/C=C/[C@@H]1C
IC50 (SF3b complexes): 5.69 nM
GI50 [3]: 7.12 nM
Emax [4]: -83.7%
GI50 [4]: 3.14 nM
GI50 [5]: > 1000 nM

C/C(=C\C=C\[C@@H](C)c1ccccn1)[C@H]1OC(=O)C[C@H](O)CC[C@@](C)(O)[C@@H](OC(=O)N2CCOCC2)/C=C/[C@@H]1C
IC50 (SF3b complexes): 480 nM
GI50 [3]: > 1000 nM
Emax [4]: 35.3%
GI50 [4]: 2550 nM
GI50 [5]: > 1000 nM

C/C(=C\C=C\C(C)c1ncccc1C)[C@H]1OC(=O)C[C@H](O)CC[C@@](C)(O)[C@@H](OC(=O)N2CCN(C3CCCCCC3)CC2)/C=C/[C@@H]1C (stereo partly shown)
IC50 (SF3b complexes): 6.26 nM
GI50 [3]: 15.8 nM
Emax [4]: -92.3%
GI50 [4]: 21.2 nM
GI50 [5]: > 1000 nM

C/C(=C\C=C\C(C)c1cccc(N2CCCC2)n1)[C@H]1OC(=O)C[C@H](O)CC[C@@](C)(O)[C@@H](OC(=O)N2CCN(C3CCCCCC3)CC2)/C=C/[C@@H]1C (stereo partly shown)
IC50 (SF3b complexes): 21.9 nM
GI50 [3]: 320 nM
Emax [4]: -95.3%
GI50 [4]: 122 nM
GI50 [5]: > 1000 nM

C/C(=C\C=C\C(C)c1ncccn1)[C@H]1OC(=O)C[C@H](O)CC[C@@](C)(O)[C@@H](OC(=O)N2CCN(C)CC2)/C=C/[C@@H]1C (stereo partly shown)
IC50 (SF3b complexes): 38.4 nM
GI50 [3]: 60.1 nM
Emax [4]: -22.2%
GI50 [4]: 155 nM
GI50 [5]: > 1000 nM
